# In patent US20120172350A1, “HISTAMINE H3 INVERSE AGONISTS AND ANTAGONISTS AND METHODS OF USE THEREOF” (SUNOVION PHARMACEUTICALS INC., priority 2009, published 2012):
# Test system: Sprague-Dawley rats
# Test: Rat EEG assay (wake, REM, non-REM states)
# Format: in vivo
# Settings: for number of wake and non-REM sleep bouts / wake bout duration: hourly bins, EEG; for wake promotion: male Sprague-Dawley rats, dosed in middle of inactive period, first 6 hours post-dosing; for time spent in REM sleep / time spent in non-REM sleep / time spent in wake: relative to vehicle treated animals, 6 hour recording; for normalized power in the 40-60 Hz range (EEG spectral analysis): wake EEG spectra, shift to higher frequencies
# Protocol: The rat EEG assay was designed to measure electrical signals from the brain as a proxy for in vivo biological activity at the H3 receptor.
# Specifically, animals were housed in a temperature-controlled recording room under a 12 hour/12 hour light/dark cycle, with food and water available ad libitum. Eight male Sprague-Dawley rats were implanted with chronic recording devices for continuous recordings of electroencephalograph (EEG) via telemetry (Data Sciences Inc). A repeated measures design was employed in which each rat received eight separate dosings of the compound being tested with a minimum of 3 days between doses. […] EEG data were scored visually in 10 second epochs for wake, REM, and non-REM states. Scored data were analyzed and expressed as time spent in each state per hour. Cumulative time spent in wake, non-REM, and REM states were calculated for the 6 hour recording period. To determine whether any of the pharmacological treatments affected the consolidation of behavioral states, the duration and number of bouts for each state were calculated in hourly bins. A “bout” consisted of a minimum of two consecutive 10-second epochs of a given state and ended with any single state change epoch. The EEG spectra during wake and non-REM sleep were analyzed offline with a fast Fourier transform algorithm (NeuroScore software, Data Sciences Inc) on all epochs without a visually detectable artifact. Wake EEG spectra were analyzed in 1 Hz bins. Data were analyzed using two-way repeated-measures ANOVA.
# For both compounds, there was an increase in the time spent in wake, a decrease in the time spent in non-REM sleep, and no change in the time spent in REM sleep relative to vehicle treated animals.
SMILES,number of wake and non-REM sleep bouts,wake bout duration,wake promotion,time spent in REM sleep,time spent in non-REM sleep,time spent in wake,normalized power in the 40-60 Hz range (EEG spectral analysis)
"c1cn2cc(-c3ccc4c(c3)nc3n4CCCN(C4CCC4)CC3)ccc2n1 [Compound 59, 3-cyclobutyl-10-(imidazo[1,2-a]pyridin-6-yl)-1,2,3,4,5,6-hexahydrobenzo[4,5]imidazo[1,2-a][1,5]diazocine]",decrease,increase,wake promoting,no change,decrease,increase,increase
"c1cn2cc(-c3ccc4c(c3)nc3n4CCN4CCCC[C@@H]4C3)ccc2n1 (single isomer, unassigned) [Compound 48]",decrease,increase,wake promoting,no change,decrease,increase,increase
